# Results as given in PubChem BioAssay (NCI).
#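 Cells were grown in 96-well plates and exposed to each compound for 48 hours at five concentrations; endpoints were interpolated linearly between bracketing concentrations, or set to the highest concentration if not reached. GI50 is the concentration that inhibits growth by half. Definition used: TGI = concentration required for complete inhibition of growth.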
# Key:
# Test in all cases: NCI tumour cell line growth inhibition, 48 h
# [1] = test system: ACHN renal
# [2] = test system: BT-549 breast
# [3] = test system: CCRF-CEM leukemia
# [4] = test system: HCT-15 colon
# [5] = test system: MDA-MB-231 breast
# [6] = test system: NCI-H226 lung
# [7] = test system: OVCAR-5 ovarian
# [8] = test system: SK-MEL-2 melanoma
# [9] = test system: SN12C renal
# [10] = test system: T-47D breast
SMILES,GI50 [1] [µM],TGI [1] [µM],GI50 [2] [µM],TGI [2] [µM],GI50 [3] [µM],TGI [3] [µM],GI50 [4] [µM],TGI [4] [µM],GI50 [5] [µM],TGI [5] [µM],GI50 [6] [µM],TGI [6] [µM],GI50 [7] [µM],TGI [7] [µM],GI50 [8] [µM],TGI [8] [µM],GI50 [9] [µM],TGI [9] [µM],GI50 [10] [µM],TGI [10] [µM]
CCCN1CCCC(c2ccc(Nc3nc(Nc4cc(F)ccc4C(N)=O)c4cc[nH]c4n3)c(OC)c2)C1 (stereo not given),2.92,6.23,3.74,7.4,1.55,18.4,0.437,5.47,3.28,7.7,3.04,6.68,0.556,5.36,1.42,5.26,3.19,6.71,3.55,7.62
CCn1nc(C#Cc2c(C)ccc3c(Nc4ccc(Cl)cc4)nccc23)c2c(N)ncnc21,5.31,> 100,5.27,> 100,3.31,> 100,3.46,> 100,1.89,27.8,3.29,12.9,9.19,> 100,1.92,6.53,3.84,> 100,5.48,> 100
CC/C(=C\c1ccc(N(C)C)cc1)c1ccncc1,5.87,> 100,4.38,23.5,8.13,> 100,2.82,> 100,6.53,80.1,14.1,> 100,33,> 100,8.51,> 100,5.96,> 100,4.16,> 100
COc1cc2nc(NC3CCC3)nc(NC3CCN(C(C)C)CC3)c2cc1OC,2.7,7.4,1.71,3.7,2.21,5.11,2.16,5.15,1.84,3.79,6,21.8,4.01,19.1,1.9,3.79,3.92,16.1,1.95,4.11
Cc1ccccc1C1N=C2Oc3ccccc3C=C2C(=O)N1 (stereo not given),2.2,> 100,7.32,> 100,4.63,> 100,2.05,> 100,1.81,33.3,> 100,> 100,2.51,> 100,0.535,> 100,8.33,> 100,1.58,> 100
CC(C)OC(=O)OCOP(=O)(OCOC(=O)OC(C)C)C1CCCN(O)C1=O (stereo not given),0.888,> 100,0.468,11.7,0.446,> 100,1.85,> 100,0.632,> 100,1.36,> 100,5.25,> 100,3.1,20.4,0.281,> 100,1.98,> 100
CN(C)c1ccc(-c2cc(-c3cccc(NS(C)(=O)=O)c3)nc(N)c2C#N)cc1,0.067,23.3,0.0645,4.65,0.0379,> 100,0.0362,11.8,0.11,1.52,0.045,17.6,0.121,> 74.8,0.0449,21.8,0.0537,20.7,0.951,35.9
COC(=O)[C@@H](C)C[C@H](Cc1ccccc1)NC(=O)c1nc([C@@H](C[C@H](C(C)C)N(C)C(=O)[C@@H](NC(=O)[C@H]2CC(=O)CCN2C)C(C)C)OC(C)=O)sc1C(C)C,0.794,> 16.7,0.0971,2.7,0.37,> 16.7,0.524,> 16.7,0.373,3.28,0.415,2.95,0.617,> 16.7,0.104,> 16.7,0.462,> 16.7,0.08,> 16.7
COc1cc(F)c(F)c(F)c1C(=O)c1cnc(NC2CCN(S(C)(=O)=O)CC2)nc1N,0.906,> 25,3.23,8.35,1.21,> 25,1.32,> 25,1.26,16,1.86,15.7,1.45,> 25,3.02,7.46,1.96,> 25,2.64,> 24.1
